This is an account of results in patent EP3412661A1, “COCRYSTALS OF VORTIOXETINE HYDROBROMIDE AND RESORCINOL” (Enantia, S.L., priority 2017, dated 2018).

≈ marks a conversion by molar mass, not a printed value. Counter-ions that a name gives are not always drawn.

A short description of data set [1]: Comparative kinetic solubility study in water at room temperature (HPLC vortioxetine peak area, pH and XRPD of filtered solid). The conditions noted are these: for Analysis 1 XRPD / Analysis 2 XRPD / Analysis 1 pH / Analysis 2 pH: Form β study; for Analysis 1 XRPD / Analysis 2 XRPD: filtered solid; for Analysis 1 pH / Analysis 2 pH: mother liquor. As to the method:
A comparative kinetic solubility study of the cocrystal of vortioxetine·HBr and resorcinol 2:1 Form I and with vortioxetine·HBr Form β was performed in water at room temperature (RT). The relative solubility of vortioxetine was obtained by comparison of the vortioxetine peak area in the HPLC analyses of the mother liquors.
The solubility tests were performed in a minireactor HME-R, provided with a 250 mL vessel, a temperature sensor and mechanical stirring.
1 g of each material was stirred in water (150 ml, […]) at 350 rpm. Aliquots of ca. 5 ml of suspension were filtered in a sintered glass funnel (#4) at different times: 30, 60, 180 min and 24 h. After filtration, the pH of the mother liquor was determined. 1 mL of mother liquor was measured with a pipette and diluted to 10 mL with water in a volumetric flask. A portion of this solution was filtered again through a 0.20 µm nylon filter and directly analyzed by HPLC (2 injections for each sample). The filtered solids were analyzed by XRPD, without a drying step, to determine the crystalline phase corresponding to the measured solubility.
The HPLC conditions were the following:
The kinetic solubility of cocrystal vortioxetine hydrobromide and resorcinol Form I and vortioxetine·HBr Form β at room temperature in water was determined in duplicate.

A short description of data set [2]: Stability test under accelerated stability conditions (ICH), crystalline phase checked by XRPD. In kind it is physicochemical. As to conditions: 40 °C / 75±5% RH. The procedure: The samples were analyzed by XRPD to observe if the crystalline phase was stable (see Table 2).
The conditions of data set [3]: according to WO2007/144005A1 / US9562024B2; hydrobromide; cited from earlier work.
For data set [4] the following is noted: cited from earlier work.
For data set [5] the following is noted: compared with vortioxetine hydrobromide Form β (example 140 of US9562024B2); cited from earlier work.
For data set [6] the following is noted: cited from earlier work. The source holds these as a separate data set.
Where [7] appears, read: water, room temperature, 30 min.
The mark [8] stands for this setting: water, room temperature, 60 min.
Setting [9] is: water, room temperature, 180 min.

In the case of `Cc1ccc(Sc2ccccc2N2CCNCC2)c(C)c1` [Vortioxetine·HBr Form β, vortioxetine hydrobromide], the “maximum of solubility afforded after” value in data set [1] is given as “three hours”. Further, the “spring and parachute effect” value in data set [1] was “not seen”. Moreover, the “Analysis 1 Average Form β (Vortioxetine area)” value in data set [1] (30 min) is 564; in data set [1] (60 min), 550; in data set [1] (180 min), 579; in data set [1] (24 h) it was 572. For the same molecule, the “Analysis 2 Average Form β (Vortioxetine area)” value is 427 in data set [1] (30 min), 537 in data set [1] (60 min), 561 in data set [1] (180 min) and 581 in data set [1] (24 h). Besides, the “Average Vortioxetine area” value in data set [1] (30 min) was 495; in data set [1] (60 min), 544; in data set [1] (180 min), 570; in data set [1] (24 h), 576. For the same molecule, the “Analysis 1 XRPD” value in data set [1] (setting [7]) is listed as “Form β”; in data set [1] (setting [8]) it was “Form β”; in data set [1] (setting [9]), “Form β”; in data set [1] (water, room temperature, 24 h), “Form β”. In addition, the “Analysis 2 XRPD” value in data set [1] (setting [7]) is on record as “Form β”; in data set [1] (setting [8]) it was “Form β”; in data set [1] (setting [9]), “Form β”; in data set [1] (water, room temperature, 24 h), “Form β”. The “Analysis 1 pH” value in data set [1] (setting [7]) turned out to be 4.9; in data set [1] (setting [8]), 4.8; in data set [1] (setting [9]), 4.8; in data set [1] (water, room temperature, 24 h), 5.6. For the same molecule, the “Analysis 2 pH” value was 5.3 in data set [1] (setting [7]); 5.1 in data set [1] (setting [8]); 5.1 in data set [1] (setting [9]); 5.5 in data set [1] (water, room temperature, 24 h). Moreover, in data set [1] (water, room temperature, 24 hours, XRPD), the “crystalline form after 24 hours in water dispersion” value is reported as “unchanged”. In data set [1] (water, room temperature, remaining constant over the study), the pH is given as 4-5. The XRPD result in data set [2] (7 days) is recorded as “stable”; in data set [2] (14 days), “stable”; in data set [2] (21 days), “stable”; in data set [2] (28 days, hydrobromide), “stable”; in data set [2] (28 days, listed as Vortioxetine•HBr Form β, hydrobromide), “remained stable”.

As to `Cc1ccc(Sc2ccccc2N2CCNCC2)c(C)c1` [ethyl acetate solvate of vortioxetine hydrobromide], the stability result in data set [3] is on record as “unstable”.

For the molecule `Cc1ccc(Sc2ccccc2N2CCNCC2)c(C)c1` [Form α of vortioxetine hydrobromide, vortioxetine hydrobromide], the solubilities in water in data set [4] (Examples 4b and 4d of WO2007/144005A1, listed as vortioxetine hydrobromide Form α, hydrobromide) was 2 mg/mL. In addition, in data set [3], the stability entry was “unstable and is transformed to the Form β of vortioxetine hydrobromide at room temperature”.

As to `Cc1ccc(Sc2ccccc2N2CCNCC2)c(C)c1` [vortioxetine hemihydrobromide], in data set [5], the kinetic solubility result was “much lower”.

Consider `Cc1ccc(Sc2ccccc2N2CCNCC2)c(C)c1` [Form γ of vortioxetine hydrobromide, vortioxetine hydrobromide], for which the stability entry in data set [3] is recorded as “very unstable”. Also, the hygroscopicity in data set [6] (under low-humidity conditions) is listed as 2.0%.

With `Cc1ccc(Sc2ccccc2N2CCNCC2)c(C)c1` [hemihydrate of vortioxetine hydrobromide, vortioxetine hydrobromide], the stability entry in data set [3] is “unstable”. Moreover, the “hygroscopicity (in words)” value in data set [6] (according to WO2007/144005A1 / US9562024B2) was “hygroscopic”.

With `Cc1ccc(Sc2ccccc2N2CCNCC2)c(C)c1` [Vortioxetine, 1-[2-(2,4-dimethyl-phenylsulfanyl)-phenyl]piperazine], the solubility in water in data set [4] (25 °C) is 7.8 µg/mL (≈ 26.1 µM).

In the case of `Br.Br.Cc1ccc(Sc2ccccc2N2CCNCC2)c(C)c1.Cc1ccc(Sc2ccccc2N2CCNCC2)c(C)c1.Oc1cccc(O)c1` [cocrystal Form I, cocrystal of vortioxetine hydrobromide and resorcinol], the XRPD result in data set [2] (7 days) is recorded as “stable”; in data set [2] (14 days), “stable”; in data set [2] (21 days), “stable”; in data set [2] (28 days), “stable”; in data set [2] (28 days, listed as cocrystal of vortioxetine hydrobromide and resorcinol Form I), “remained stable”; in data set [2] (28 days, listed as cocrystal of vortioxetine·HBr and resorcinol Form I) it was “remained stable”.
